Test results reported in US20100130736A1, “METHODS OF CREATING AN INDEX” (priority 2008, published 2010).
Where two headings read alike, the source gives them in different places. Where no end group is shown, it is not given here.

Legend:
Assay type in all cases: cell-based, human
A549 cells [1] = experiment: Epic DMR agonist mode (primary profile, target panning) in A549 cells; settings: for ligand-induced DMR signal (second ligand panel): FIG. 8: 40 μM pinacidil, 250 μg/ml poly (I:C), 8 μM PMA, 16 μM forskolin
Text: (§1) Epic® wavelength interrogation system (Corning Inc., Corning, N.Y.) was used for whole cell sensing. This system consists of a temperature-control unit, an optical detection unit, and an on-board liquid handling unit with robotics. The detection unit is centered on integrated fiber optics, and enables kinetic measures of cellular responses with a time interval of ±15 sec.
(§2) For biosensor cellular assays, molecule solutions were made by diluting the stored concentrated solutions with the HBSS (1× Hanks balanced salt solution, plus 20 mM Hepes, pH 7.1), and transferred into a 384 well polypropylene molecule storage plate to prepare a molecule source plate. Both molecule and marker source plates were made separately when a two-step assay was performed. In parallel, the cells were washed twice with the HBSS and maintained in 30 μl of the HBSS to prepare a cell assay plate. Both the cell assay plate and the molecule and marker source plate(s) were then incubated in the hotel of the reader system. After ˜1 hr of incubation the baseline wavelengths of all biosensors in the cell assay microplate were recorded and normalized to zero. Afterwards, a 2 to 10 minute continuous recording was carried out to establish a baseline, and to ensure that the cells reached a steady state. Cellular responses were then triggered by pipetting 10 μl of the marker solutions into the cell assay plate using the on-board liquid handler.
First, a panel of ligands targeting GPCRs, each at 10 μM concentration, was chosen, and examined their actions on the A549 cells using DMR measurements with the Epic® system. The ligand panel included the four P2Y agonists ADP, […], UTP and UDP, the adenosine receptor agonist adenosine, the calcium sensing receptor agonist spermine, the histamine receptor agonist histamine, the adrenergic receptor agonist epinephrine, the free fatty acid receptor agonist elaidic acid, the lipoxin receptor agonist lipoxin A4, the bradykinin receptor agonist bradykinin, the adrenodullin receptor agonist adrenodullin, the PAR1 agonist SFLLR-amide, the angiotensin receptor agonist angiotensin, the neuropeptide Y receptor agonist neuropeptide Y, and the PAR2 agonist SLIGKV-amide.
Next, a second ligand panel was chosen, and examined their actions on the A549 cells using DMR measures with the Epic® system. The panel included the protein kinase C activator PMA, the endogenous KATP ion channel activator pinacidil, the adenylyl cyclase activator forskolin, and endogenous Toll-like receptor (TLR) activator poly(I:C).
A DMR index was generated for four ligand molecules. Quiescent A431 and proliferating A549 cells were separately exposed to the ligand molecules for about 1 hr to generate their primary profiles, followed by stimulation with each marker at a fixed concentration (as mentioned in FIGS. 7 and 8) for another 1 hr or so to generate secondary profiles of the molecule against the panels of markers in both types of cells. Next, one or more specific DMR parameters were chosen as a readout for plotting the DMR index of the molecule. For the pinacidil DMR response in A549, the amplitude of the N-DMR (i.e., the amplitude 30 min after stimulation) was chosen. For the poly(I:C) DMR response in A549, the amplitude of the late DMR (i.e., the amplitude 50 min after stimulation) was chosen. For the PMA response in A549, the late DMR amplitude (i.e., the amplitude 50 min after stimulation) was chosen. For the SLIGKV-amide DMR response in A549, the P-DMR amplitude (i.e., the amplitude 20 min after stimulation) was chosen. For the forskolin response in A549 cells, the P-DMR amplitude (i.e., the amplitude 50 min after stimulation) was chosen. For the histamine response in A549, both the early DMR amplitude (i.e., amplitude 10 min after stimulation) and the late response (i.e., the amplitude 30 min after stimulation) were chosen. For the epinephrine response in A431, the P-DMR amplitude (i.e., the amplitude 50 min after stimulation) was chosen.

quiescent A431 cells = experiment: Epic label-free DMR two-step assay, antagonist mode: modulation of marker-induced DMR signals in quiescent A431 cells
Experimental: (§3) Cells were typically grown using ˜1 to 2×10^4 cells per well at passage 3 to 15 suspended in 50 μl of the corresponding culture medium in the biosensor microplate, and were cultured at 37° C. under air/5% CO2 for ˜1 day. Except for A431, which was subject to ˜20 hr starvation through continuous culture in the serum-free DMEM, the other cell types were directly assayed without starvation. The confluency for all cells at the time of assays was ˜95% to 100%.
as §1, §2
To study the influence of molecules on a marker-induced response, a second stimulation with the marker at a fixed dose (typically at EC80 or EC100) was applied. The resonant wavelengths of all biosensors in the microplate were normalized again to establish a second baseline, right before the second stimulation. The two stimulations were usually separated by ˜1 hr. All studies were carried out at a controlled temperature (28° C.). At least two independent sets of experiments, each with at least three replicates, were performed. […]
A first panel of markers was contacted with quiescent A431 cells at concentrations close to each of the marker's EC80 or EC100, and DMR measurements were obtained with and EPIC® system. This panel of markers was selected from a library of markers identified in A431 cells using Epic® cellular assays. This panel included epidermal growth factor (EGF), epinephrine, nicotinic acid, and histamine. Each of these markers leads to a wide array of cell signaling. […] Each DMR signal represents an averaged response of 4 replicates.

A549 cells [2] = experiment: Epic label-free DMR two-step assay, antagonist mode: modulation of marker-induced DMR signals in A549 cells
Experimental: as §3, §1, §2
To study the influence of molecules on a marker-induced response, a second stimulation with the marker at a fixed dose (typically at EC80 or EC100) was applied. The resonant wavelengths of all biosensors in the microplate were normalized again to establish a second baseline, right before the second stimulation. The two stimulations were usually separated by ˜1 hr. All studies were carried out at a controlled temperature (28° C.). At least two independent sets of experiments, each with at least three replicates, were performed.
A second panel of markers was contacted with A549 cells at concentrations close to each of the marker's EC80 or EC100, and DMR measurements were obtained with and EPIC® system. This panel included poly(I:C), SLIGKV-amide, pinacidil, PMA, histamine, and forskolin. Each of these markers also leads to a wide array of cell signaling. Using Epic® cellular assays in conjunction with chemical biology and cell biology approach similar to the EGFR DMR mentioned above, we have determined the pathway(s) and network interaction(s) that is accounted for each marker-induced DMR signal in A549 cells. The main observations are summarized below. Poly(I:C) is an agonist for endogenous Toll-like receptor(s) in A549, whose activation leads to IKK pathway and AKT pathway. SLIGKV-amide is an agonist for endogenous protease activated receptor subtype 2 (PAR2) in A549, whose activation leads to Gq-, Gi- and G12/13-mediated signaling. Pinacidil is an opener for endogenous ATP-sensitive potassium (KATP) ion channel in A549, whose activation leads to Rho- and JAK-mediated signaling. PMA is an activator for protein kinase C (PKC), whose activation leads to PKC pathway and degranulation. Histamine is a natural agonist for endogenous histamine receptors (dominantly H1R, and possibly H3R), whose activation leads to dual signaling, possibly through Gq and Gi mediated signaling in A549. Forskolin is an activator for adenylyl cyclases, whose activation leads to cAMP-PKA pathway in A549. […] Each DMR signal represents an averaged response of 4 replicates. […]

[3] = A549, each ligand at 10 μM, FIGS. 3A and 3B
[4] = quiescent A431, 32 nM EGF, ligand 10 μM, about 1 hr pretreatment
[5] = A431, ~1 hr pretreatment with the molecule
[6] = quiescent A431, 10 μM, score scaled from percent modulation (10% = 1)
[7] = 10 μM, score scaled from percent modulation (10% = 1)
[8] = ~1 hr pretreatment with the molecule

Nc1ncnc2c1ncn2[C@@H]1O[C@H](COP(=O)(O)OP(=O)(O)O)[C@@H](O)[C@H]1O [ADP]
ligand-induced DMR signal (GPCR ligand panel) (A549 cells [1]; [3]): robust DMR signals

COc1cc2ncnc(Nc3cccc(Cl)c3)c2cc1OC [AG1478]
effect on the EGF response / DMR signal induced by EGF (in words) (quiescent A431 cells; [4]): almost completely blocked

Nc1ncnc2c1ncn2[C@@H]1O[C@H](COP(=O)(O)OP(=O)(O)OP(=O)(O)O)[C@@H](O)[C@H]1O [AT]
ligand-induced DMR signal (GPCR ligand panel) (A549 cells [1]; [3]): robust DMR signals

C#Cc1cccc(Nc2ncnc3cc(OC)c(OC)cc23)c1 [BML-265]
effect on the EGF response / DMR signal induced by EGF (in words) (quiescent A431 cells; [4]): almost completely blocked

CNCCNS(=O)(=O)c1cccc2cnccc12 [H-8]
effect on the epinephrine response (in words) (quiescent A431 cells; [5]): less effective at attenuating | effect on the histamine response (in words) (quiescent A431 cells; [5]): less effective at attenuating | modulation index score, EGF (N-DMR) (quiescent A431 cells; [6]): −2 | modulation index score, EGF (P-DMR) (quiescent A431 cells; [6]): 0.3 | modulation index score, epinephrine (quiescent A431 cells; [6]): −1.6 | modulation index score, histamine (quiescent A431 cells; [6]): 1.6 | modulation index score, nicotinic acid (quiescent A431 cells; [6]): 1 | modulation index score, PMA (A549 cells [2]; [7]): 2.2 | modulation index score, SLIGKV-amide (A549 cells [2]; [7]): 3.2 | modulation index score, forskolin (A549 cells [2]; [7]): 2 | modulation index score, histamine (early P-DMR) (A549 cells [2]; [7]): 3.8 | modulation index score, histamine (late P-DMR) (A549 cells [2]; [7]): 6.5 | modulation index score, pinacidil (A549 cells [2]; [7]): −7.2 | modulation index score, poly(I:C) (A549 cells [2]; [7]): 1.8

O=S(=O)(c1cccc2cnccc12)N1CCCNCC1 [HA1077]
modulation of the PMA-induced DMR response (A549 cells [2]; molecule 10 μM, 8 μM PMA, late DMR amplitude 50 min after stimulation): +36% | modulation of the SLIGKV-amide-induced DMR response (A549 cells [2]; molecule 10 μM, 8 μM SLIGKV-amide, P-DMR amplitude 20 min after stimulation): +22% | modulation of the histamine-induced DMR response (early P-DMR) (A549 cells [2]; molecule 10 μM, 10 μM histamine, amplitude 10 min after stimulation): +26% | modulation of the histamine-induced DMR response (late P-DMR) (A549 cells [2]; molecule 10 μM, 10 μM histamine, amplitude 30 min after stimulation): +55% | modulation of the forskolin-induced DMR response (A549 cells [2]; molecule 10 μM, 16 μM forskolin, P-DMR amplitude 50 min after stimulation): +18% | modulation of the poly(I:C)-induced DMR response (A549 cells [2]; molecule 10 μM, 250 μg/ml poly(I:C), late DMR amplitude 50 min after stimulation): +18% | effect on the PMA response (in words) (A549 cells [2]; [8]): significantly potentiated | effect on the histamine response (in words) (A549 cells [2]; [8]): significantly potentiated | effect on the pinacidil response (in words) (A549 cells [2]; [8]): almost completely attenuated | primary profile of the molecule (DMR signal triggered) (A549 cells [1]; A549, 10 μM, about 1 hr): N-DMR signal

CCCCCCCCCCCCCC(=O)O[C@@H]1[C@@H](C)[C@@]2(O)[C@@H](C=C(CO)C[C@]3(O)C(=O)C(C)=C[C@@H]23)[C@@H]2C(C)(C)[C@]12OC(C)=O [PMA, Phorbol 12-myristate 13-acetate]
ligand-induced DMR signal (second ligand panel) (A549 cells [1]; A549): robust DMR signals

N#CC(=C(/N)Sc1ccccc1N)/C(C#N)=C(\N)Sc1ccccc1N [U0126]
effect on the N-DMR of the EGF DMR signal (in words) (quiescent A431 cells): significantly and selectively attenuated | effect on the RP-DMR of the EGF DMR signal (in words) (quiescent A431 cells): significantly and selectively attenuated

O=c1ccn([C@@H]2O[C@H](COP(=O)(O)OP(=O)(O)O)[C@@H](O)[C@H]2O)c(=O)[nH]1 [UDP]
ligand-induced DMR signal (GPCR ligand panel) (A549 cells [1]; [3]): robust DMR signals

O=c1ccn([C@@H]2O[C@H](COP(=O)(O)OP(=O)(O)OP(=O)(O)O)[C@@H](O)[C@H]2O)c(=O)[nH]1 [UTP]
ligand-induced DMR signal (GPCR ligand panel) (A549 cells [1]; [3]): robust DMR signals

Nc1ncnc2c1ncn2[C@@H]1O[C@H](CO)[C@@H](O)[C@H]1O [adenosine]
ligand-induced DMR signal (GPCR ligand panel) (A549 cells [1]; [3]): robust DMR signals

CCCCCCCC/C=C/CCCCCCCC(=O)O [elaidic acid]
ligand-induced DMR signal (GPCR ligand panel) (A549 cells [1]; [3]): robust DMR signals

CNC[C@H](O)c1ccc(O)c(O)c1 [epinephrine]
ligand-induced DMR signal (GPCR ligand panel) (A549 cells [1]): robust DMR signals

NCCc1c[nH]cn1 [histamine]
ligand-induced DMR signal (GPCR ligand panel) (A549 cells [1]; [3]): robust DMR signals

CCCCC[C@H](O)/C=C/C=C\C=C\C=C\[C@@H](O)[C@@H](O)CCCC(=O)O [lipoxin A4]
ligand-induced DMR signal (GPCR ligand panel) (A549 cells [1]; [3]): robust DMR signals

CC(N/C(=N\C#N)Nc1ccncc1)C(C)(C)C (stereo not drawn) [pinacidil]
ligand-induced DMR signal (second ligand panel) (A549 cells [1]; A549): robust DMR signals

CC(=O)c1c(O)c(C)c(O)c(Cc2c(O)c3c(c(C(=O)/C=C/c4ccccc4)c2O)OC(C)(C)C=C3)c1O [rottlerin]
effect on the N-DMR of the EGF DMR signal (in words) (quiescent A431 cells; [4]): part of the early N-DMR event | effect on the early P-DMR event of the EGF DMR signal (in words) (quiescent A431 cells; [4]): specifically caused the truncation

NCCCNCCCCNCCCN [spermine]
ligand-induced DMR signal (GPCR ligand panel) (A549 cells [1]; [3]): robust DMR signals

SFLLR-amide
ligand-induced DMR signal (GPCR ligand panel) (A549 cells [1]; [3]): robust DMR signals

SLIGKV-NH2
ligand-induced DMR signal (GPCR ligand panel) (A549 cells [1]; [3]): robust DMR signals

adrenodullin: adrenodullin receptor agonist (YRQSMNNFQGLRSFGCRFGTCTVQKLAHQIYQFTDKDKDNVAPRSKISPQGY; ends and bridges not checked; cysteine pairing not given here; UniProt P35318 95-146, looked up)
ligand-induced DMR signal (GPCR ligand panel) (A549 cells [1]; [3]): robust DMR signals

angiotensin
ligand-induced DMR signal (GPCR ligand panel) (A549 cells [1]; [3]): robust DMR signals

neuropeptide Y: neuropeptide Y receptor agonist
ligand-induced DMR signal (GPCR ligand panel) (A549 cells [1]; [3]): robust DMR signals

poly(I:C)
ligand-induced DMR signal (second ligand panel) (A549 cells [1]; A549): robust DMR signals
